Entries after “also recorded” stand apart in the source; their conditions may differ.
Experiments:
CD4+ and CD8+ T cells = assay: Immunization of NOD mice with WE14; intracellular IFNγ of pLN and spleen T cells by flow cytometry; format: in vivo; conditions: WE14 100 mg + IFA i.p. day 0, boost day 30; pLN and spleen at seven weeks
Experimental: In another experiment, NOD mice (3-4 wks old) were immunized intraperitoneally (i.p.) with WE14 (100 mg+IFA) at day 0 and boosted with the same dose of peptide 30 days later. Seven weeks after the initial immunization, pancreatic lymph nodes (pLN) and spleen were harvested and single cell suspensions of these organs were made. The cells were stimulated with anti-CD3 ([…]) and anti-CD28 (2 mg/ml) for 48 hr. PMA/ionomycin and Golgiplug were added for an additional 4 hr. Cells were harvested and analyzed for intracellular IFNγ production by flow cytometry. […] See, FIG. 17.

diabetogenic T cells = assay: Immunization of BDC-2.5 TCR-Tg NOD mice with WE14; spleen cell IFNγ ELISA; format: in vivo; conditions: WE14 50 mg in CFA day 0, boost in IFA day 7; spleen cells day 14, WE14 100 mg or 200 mg as antigen
Experimental: In one experiment, BDC-2.5 TCR-Tg NOD mice were immunized with WE14 ([…]) in complete Freund's adjuvant (CFA) at day 0 and boosted with WE14 in incomplete Freund's adjuvant (IFA) at day 7. Spleen cells were harvested 14 days after the initial immunization and assayed by ELISA with WE14 (100 mg or 200 mg) as antigen. […] See, FIG. 16.

T cell clone BDC-5.10.3 = assay: IFNγ production by T cell clone in antigen assay (ELISA); format: cell-based, NOD mouse; conditions: for Stimulation of T cell clone BDC-5.10.3 (IFNγ response), result in words: peptide or preparation as antigen
Description: (§1) The T cell clones are maintained in culture by periodic re-stimulation with irradiated NOD splenocytes and islet cells or β-membrane. To assay for antigen, resting responder T cells (i.e., for example, the cells at the end of the two-week restimulation period) are co-cultured for 24 hr with elicited peritoneal macrophages (PEC) as APC and either a test sample or control antigen. Control antigen will be in the form of islet cells or the whole-cell membrane fraction (i.e., for example, a β-membrane fraction). As described above, unlysed β-membrane is stored in aliquots at −80° C. for this purpose. Negative controls include responder cells alone and responders plus APC.
(§2) At the end of the culture period, supernatants are collected from the cultures and IFNγ production is measured by ELISA. Wells positive for IFNγ are indicative of T cells responding to antigen; the amount of cytokine produced is calculated from a standard curve and is directly proportional to the amount of antigen present.
(§3) Antigenicity of islet cells, cellular and biochemical fractions, peptides, or insect cells expressing IA^g7-peptide constructs, was assessed through responses of T cell clones or hybridomas made by fusing T cell clones to the TCR^− version of T cell lymphoma, BW5147. White et al., “Two better cell lines for making hybridomas expressing specific T cell receptors” J Immunol 143:1822-1825 (1989). T cell clone cultures typically contained 2×10^4 responder T cells, 2.5×10^4 NOD peritoneal exudate cells (PEC) as APC, and antigen (SEC/IEX fractions, peptides, islet cells); all assays were performed with β-Mem as a positive control. IFNγ was measured by ELISA of culture supernatants. For cultures with T cell hybridomas, antigen/MHC activation was assessed by IL-2 production measured by a bioassay using the HT-2 T cell line. Walker et al., “Antigenspecific. I region-restricted interactions in vitro between tumor cell lines and T cell hybridomas” J Immunol 128:2164-2169 (1982). Synthetic peptides were either produced in the Molecular Resource Center at National Jewish Health or obtained from CHI Scientific, Maynard, Mass.

T cell clone BDC-10.1 = assay: as above; format: cell-based, NOD mouse; conditions: for Stimulation of T cell clone BDC-10.1 (IFNγ response), result in words: peptide or preparation as antigen
Description: as §1, §2, §3

T cell clone BDC-2.5 = assay: as above; format: cell-based, NOD mouse; conditions: for Stimulation of T cell clone BDC-2.5 (IFNγ response), result in words: peptide or preparation as antigen
Description: as §1, §2, §3

NOD.scid recipients = assay: Adoptive co-transfer of diabetes to NOD.scid recipients with spleen cells from WE14-immunized NOD mice; format: in vivo; conditions: 1×10^7 WE14 SC co-transferred i.v. with 1×10^7 diabetic NOD spleen cells
Experimental: In another experiment, NOD mice (3-4 wks old) were immunized with WE14+IFA and 13 days later, single cell suspensions of the spleens (WE14 SC) were prepared. WE14 SC (1×10^7) were co-transferred with spleen cells obtained from a diabetic NOD mouse (1×10^7) into adult NOD.scid recipients by Intravenous (i.v.) injection. Urine glucose was monitored daily following cell transfer and hyperglycemia was confirmed by blood glucose readings.

soluble IA^g7 = assay: Peptide binding to IA^g7: competition with biotinylated HEL peptide; parameters: species or system NOD mouse; conditions: competition with biotinylated pHEL 11 μM, pH 5.6, overnight
Description: FIG. 15B: A series of ChgA peptides tested for their ability to compete with a biotinylated HEL peptide for binding to soluble IA^g7. pS3-positive control peptide. IE^k moth cytochrome c-negative control peptide. N=2. Y axis: Percent of IA^g7-bound biotinylated HEL peptide as compared to IE^k. X axis: Log concentration of inhibitor peptide.
In order to confirm the unique binding register of the WE14 peptide, a series of peptides comprising N-terminal extensions and/or C-terminal deletions of WE14 were evaluated for their ability to stimulate the BDC-2.5 T cell clone (FIG. 6a) or to bind to IA^g7. See, FIG. 15A. […] See, FIG. 15B. Further, a pS3 mimotope was used as the positive control peptide and an irrelevant peptide from moth cytochrome c, pMCC, was the negative control peptide. The data were analyzed to determine the stimulatory or binding capacity of the peptides relative to WE14. See, FIG. 15C.
Soluble IA^g7 with covalently attached pHEL was treated with thrombin to cleave the linker attaching the peptide to the IA^g7 β chain. Kozono et al., “Production of soluble MHC class II proteins with covalently bound single peptides” Nature 369:151-154 (1994). Samples (0.5 μg) were incubated with a soluble biotinylated version of pHEL, Biotin-GGGMKRHGLDNYRGYSL (SEQ ID NO: 56) (11 μM), either alone or in the presence of various concentrations of potential competitors peptides, in 15 μL of pH 5.6 buffer overnight at room temperature. The sample was diluted to 100 μL of PBS in a well of a 96-well ELISA plate coated with an anti-IA^g7 monoclonal antibody, OX-6 (BD Pharmaceuticals). The captured IA^g7 was washed several times with PBS and the bound bio-pHEL detected with alkaline phosphatase coupled Extravadin (Sigma) and […].

## WSRMDQLAKELTAE (listed as Mus musculus) [WE14, natural cleavage product of ChgA, aa 359-372]
CD4+ and CD8+ T cells
  Inflammatory response (intracellular IFNγ) of CD4+ and CD8+ T cells in lymphoid organs: suppress
Diabetogenic T cells
  IFNγ response of the diabetogenic T cells after immunization: considerably reduced
T cell clone BDC-5.10.3; BDC-5.10.3, synthetic peptide
  Potency in activating the BDC clones, fold less potent than the pS3 mimotope: at least 1000 fold
T cell clone BDC-5.10.3
  Stimulation of T cell clone BDC-5.10.3 (IFNγ response), result in words: stimulated; also recorded: considerably less potent
T cell clone BDC-5.10.3; listed as WE-14
  Stimulation of T cell clone BDC-5.10.3 (IFNγ response), result in words: stimulated
T cell clone BDC-10.1; BDC-10.1, synthetic peptide
  Potency in activating the BDC clones, fold less potent than the pS3 mimotope: at least 1000 fold
T cell clone BDC-10.1
  Stimulation of T cell clone BDC-10.1 (IFNγ response), result in words: stimulated; also recorded: considerably less potent
T cell clone BDC-10.1; listed as WE-14
  Stimulation of T cell clone BDC-10.1 (IFNγ response), result in words: stimulated
T cell clone BDC-2.5; 100 mg/ml peptide, 100 mg/ml β-membrane = 100%
  Antigen response as percentage of maximal IFN-γ response [% Max]: ~15%
T cell clone BDC-2.5; BDC-2.5, synthetic peptide
  Potency in activating the BDC clones, fold less potent than the pS3 mimotope: at least 1000 fold
T cell clone BDC-2.5
  Stimulation of T cell clone BDC-2.5 (IFNγ response), result in words: weak stimulator; also recorded: weakly stimulated; also recorded: considerably less potent; also recorded: only very weakly
T cell clone BDC-2.5; listed as WE-14
  Stimulation of T cell clone BDC-2.5 (IFNγ response), result in words: stimulated
NOD.scid recipients
  Onset of disease induced by diabetic NOD spleen cells: considerably delayed
Soluble IA^g7
  IA^g7 binding, result in words: can bind
